Reference: patent US7998965B2, “Glutamate aggrecanase inhibitors” (Wyeth LLC, priority 2005, dated 2011)
Where two headings read alike, the source gives them in different places.

What was measured:
[1] = molecular target: T1, purified recombinant human Aggrecanase-1 (rAgg1) (Homo sapiens, UniProt O75173); experiment: In vitro fluorescence screen for Aggrecanase-1 inhibitors; format: biochemical; parameters: Agg1 % at concentration: scale not given here; conditions: for IC50: read-out: Agg1 IC50
T1 sequence (O75173 213-837): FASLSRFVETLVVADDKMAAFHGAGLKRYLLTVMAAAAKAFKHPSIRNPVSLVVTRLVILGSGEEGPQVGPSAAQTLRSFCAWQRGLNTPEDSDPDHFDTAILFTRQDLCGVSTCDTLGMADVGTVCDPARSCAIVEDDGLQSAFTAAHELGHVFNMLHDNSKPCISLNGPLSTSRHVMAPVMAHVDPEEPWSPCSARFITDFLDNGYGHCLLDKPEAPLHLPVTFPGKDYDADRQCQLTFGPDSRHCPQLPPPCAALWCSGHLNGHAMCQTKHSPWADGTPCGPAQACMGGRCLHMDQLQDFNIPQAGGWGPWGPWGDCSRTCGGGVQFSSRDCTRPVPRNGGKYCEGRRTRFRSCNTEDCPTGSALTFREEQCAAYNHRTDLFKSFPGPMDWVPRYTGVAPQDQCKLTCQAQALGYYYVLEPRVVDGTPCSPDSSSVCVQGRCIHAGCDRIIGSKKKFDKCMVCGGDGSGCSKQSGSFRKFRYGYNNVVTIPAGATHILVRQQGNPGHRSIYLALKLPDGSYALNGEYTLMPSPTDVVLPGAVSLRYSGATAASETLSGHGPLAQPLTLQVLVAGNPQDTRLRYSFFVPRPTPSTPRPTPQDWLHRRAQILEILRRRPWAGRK

[2] = molecular target: T2, purified recombinant human Aggrecanase-2 (Ag2t-Phe628-Strep) (Homo sapiens, UniProt Q9UNA0); experiment: In vitro fluorescence screen for Aggrecanase-2 inhibitors; format: biochemical; conditions: for IC50: read-out: Agg 2 IC50; for inhibition at 11 µM: read-out: Agg 2 % at concentration
T2 construct: the form used is denoted as Ag2t-Phe628-Strep (MW=41,737)
T2 sequence (Q9UNA0 262-628): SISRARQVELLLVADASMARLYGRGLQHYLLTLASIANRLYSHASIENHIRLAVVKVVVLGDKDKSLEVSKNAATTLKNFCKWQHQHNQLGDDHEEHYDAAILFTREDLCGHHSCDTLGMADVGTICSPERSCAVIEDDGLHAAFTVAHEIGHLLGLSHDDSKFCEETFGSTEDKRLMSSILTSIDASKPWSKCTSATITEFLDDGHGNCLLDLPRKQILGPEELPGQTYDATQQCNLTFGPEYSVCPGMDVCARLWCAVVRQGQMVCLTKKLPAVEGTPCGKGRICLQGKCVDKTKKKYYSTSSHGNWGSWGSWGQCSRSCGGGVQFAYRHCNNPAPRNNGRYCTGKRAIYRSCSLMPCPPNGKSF

SMILES	IC50 ([1]; Table 2) [nM]	IC50 ([2]; Table 2) [nM]	further results
CC(C)(Cc1ccccc1)NC(=O)[C@H](CCC(=O)O)NC(=O)c1ccc(-c2ccc(COc3cc(C(F)(F)F)cc(C(F)(F)F)c3)cc2)cc1 [Example 15O, N^2-[(4′-{[3,5-bis(trifluoromethyl)phenoxy]methyl}biphenyl-4-yl)carbonyl]-N-(1,1-dimethyl-2-phenylethyl)-L-α-glutamine]	–	–	IC50 ([1]; Table 3): 52 nM; IC50 ([2]; Table 3): 3130 nM
CC(C)(Cc1ccccc1)NC(=O)[C@H](CCC(=O)O)NC(=O)c1ccc(-c2ccc(COc3ccc4c(c3)OCO4)cc2)cc1 [Example 15P, N^2-({4′-[(1,3-benzodioxol-5-yloxy)methyl]biphenyl-4-yl}carbonyl)-N-(1,1-dimethyl-2-phenylethyl)-L-α-glutamine]	–	–	IC50 ([1]; Table 3): < 30 nM; IC50 ([2]; Table 3): 255 nM
COc1cc(OC)cc(OCc2ccc(-c3ccc(C(=O)N[C@@H](CCC(=O)O)C(=O)NCc4cccc(C)c4)cc3)cc2)c1 [Example 15Q, N^2-({4′-[(3,5-dimethoxyphenoxy)methyl]biphenyl-4-yl}carbonyl)-N-(3-methylbenzyl)-L-α-glutamine]	–	–	IC50 ([1]; Table 3): 158 nM; IC50 ([2]; Table 3): 1940 nM
COc1cc(OC)cc(OCc2cccc(-c3ccc(C(=O)N[C@@H](CCC(=O)O)C(=O)NCc4cccc(C)c4)cc3)c2)c1 [Example 15R, N^2-({3′-[(3,5-dimethoxyphenoxy)methyl]biphenyl-4-yl}carbonyl)-N-(3-methylbenzyl)-L-α-glutamine]	–	–	IC50 ([1]; Table 3): 560 nM; inhibition at 11 µM ([2]; Table 3, at 11000 (nM)): 48%
Cc1cccc(CNC(=O)[C@H](CCC(=O)O)NC(=O)c2ccc(-c3cccc(COc4cc(C(F)(F)F)cc(C(F)(F)F)c4)c3)cc2)c1 [Example 15S, N^2-[(3′-{[3,5-bis(trifluoromethyl)phenoxy]methyl}biphenyl-4-yl)carbonyl]-N-(3-methylbenzyl)-L-α-glutamine]	–	–	Agg1 % at concentration ([1]; Table 3, at 1850 (nM)): 30%; Agg 2 % at concentration ([2]; Table 3, at 33000 (nM)): 41%
O=C(O)CC[C@H](NC(=O)c1ccc(-c2ccc(OCc3cccc(-c4ccccc4)c3)cc2)cc1)C(=O)NCc1ccccc1 [Example 15U, N-benzyl-N^2-{[4′-(biphenyl-3-ylmethoxy)biphenyl-4-yl]carbonyl}-L-α-glutamine]	–	–	Agg1 % at concentration ([1]; Table 3, at 100 (nM)): 53%; Agg1 % at concentration ([1]; Table 3, at 1000 (nM)): 53%; inhibition at 11 µM ([2]; Table 3, at 11000 (nM)): 30%; IC50 ([2]; Table 3): 600 nM
COc1cccc(-c2cccc(COc3ccc(-c4ccc(C(=O)N[C@@H](CCC(=O)O)C(=O)NCc5ccccc5)cc4)cc3)c2)c1 [Example 15V, N-benzyl-N^2-({4′-[(3′-methoxybiphenyl-3-yl)methoxy]biphenyl-4-yl}carbonyl)-L-α-glutamine]	–	–	Agg1 % at concentration ([1]; Table 3, at 40 (nM)): 47% 40; IC50 ([2]; Table 3): 700 nM
O=C(O)CC[C@H](NC(=O)c1ccc(-c2ccc(OCc3ccccc3-c3ccccc3)cc2)cc1)C(=O)NCc1ccccc1 [Example 15W, N-benzyl-N^2-{[4′-(biphenyl-2-ylmethoxy)biphenyl-4-yl]carbonyl}-L-α-glutamine]	–	–	Agg1 % at concentration ([1]; Table 3, at 1900 (nM)): 56%; Agg 2 % at concentration ([2]; Table 3, at 11000 (nM)): 59%
COc1cccc(-c2ccccc2COc2ccc(-c3ccc(C(=O)N[C@@H](CCC(=O)O)C(=O)NCc4ccccc4)cc3)cc2)c1 [Example 15X, N-benzyl-N^2-({4′-[(3′-methoxybiphenyl-2-yl)methoxy]biphenyl-4-yl}carbonyl)-L-α-glutamine]	–	–	Agg1 % at concentration ([1]; Table 3, at 1900 (nM)): 46%; Agg 2 % at concentration ([2]; Table 3, at 11000 (nM)): 52%
CC(C)(Cc1ccccc1)NC(=O)[C@H](CCC(=O)O)NC(=O)c1ccc(-c2ccc(COc3cccc(C(C)(C)C)c3)cc2)cc1 [Example 15Y, N^2-({4′-[(3-tert-butylphenoxy)methyl]biphenyl-4-yl}carbonyl)-N-(1,1-dimethyl-2-phenylethyl)-L-α-glutamine]	220	841	–
CC(C)(Cc1ccccc1)NC(=O)[C@H](CCC(=O)O)NC(=O)c1ccc(-c2ccc(COc3cc(C(C)(C)C)cc(C(C)(C)C)c3)cc2)cc1 [Example 15Z, N^2-({4′-[(3,5-di-tert-butylphenoxy)methyl]biphenyl-4-yl}carbonyl)-N-(1,1-dimethyl-2-phenylethyl)-L-α-glutamine]	1400	6040	–
CCOc1cccc(-c2ccc(C(=O)N[C@@H](CCC(=O)O)C(=O)NCc3cc(OC)c(OC)c(OC)c3)cc2)c1 [Example 16, N^2-[(3′-ethoxybiphenyl-4-yl)carbonyl]-N-(3,4,5-trimethoxybenzyl)-L-α-glutamine]	< 30	467	–
CCOc1ccccc1-c1ccc(C(=O)N[C@@H](CCC(=O)O)C(=O)NCc2cc(OC)c(OC)c(OC)c2)cc1 [Example 17A, N^2-[(2′-ethoxybiphenyl-4-yl)carbonyl]-N-(3,4,5-trimethoxybenzyl)-L-α-glutamine]	116	1120	–
COc1cc(CNC(=O)[C@H](CCC(=O)O)NC(=O)c2ccc(-c3ccc(C(C)C)cc3)cc2)cc(OC)c1OC [Example 17AA, N^2-[(4′-isopropylbiphenyl-4-yl)carbonyl]-N-(3,4,5-trimethoxybenzyl)-L-α-glutamine]	3500	5700	–
COc1ccc(-c2ccc(C(=O)N[C@@H](CCC(=O)O)C(=O)NCc3cc(OC)c(OC)c(OC)c3)cc2)cc1 [Example 17B, N^2-[(4′-methoxybiphenyl-4-yl)carbonyl]-N-(3,4,5-trimethoxybenzyl)-L-α-glutamine]	204	1020	–
O=C(O)CC[C@H](NC(=O)c1ccc(-c2ccc3occc3c2)cc1)C(=O)NCC12CC3CC(CC(C3)C1)C2 [Example 17BB, N-(1-adamantylmethyl)-N^2-[4-(1-benzofuran-5-yl)benzoyl]-L-α-glutamine]	3600	2900	–
COc1cccc(-c2ccc(C(=O)N[C@@H](CCC(=O)O)C(=O)NCc3cc(OC)c(OC)c(OC)c3)cc2)c1 [Example 17C, N^2-[(3′-methoxybiphenyl-4-yl)carbonyl]-N-(3,4,5-trimethoxybenzyl)-L-α-glutamine]	< 30	80	–
O=C(O)CC[C@H](NC(=O)c1ccc(-c2ccc3[nH]ccc3c2)cc1)C(=O)NCC12CC3CC(CC(C3)C1)C2 [Example 17CC, N-(1-adamantylmethyl)-N^2-[4-(1H-indol-5-yl)benzoyl]-L-α-glutamine]	2900	2970	–
COc1cc(CNC(=O)[C@H](CCC(=O)O)NC(=O)c2ccc(-c3cccc(C(=O)O)c3)cc2)cc(OC)c1OC [Example 17D, 4′-{[((1S)-3-carboxy-1-{[(3,4,5-trimethoxybenzyl)amino]carbonyl}propyl)amino]carbonyl}biphenyl-3-carboxylic acid]	> 17000	> 200000	–
CCOc1cccc(-c2ccc(C(=O)N[C@@H](CCC(=O)O)C(=O)NC(C)(C)Cc3ccc(F)cc3)cc2)c1 [Example 17DD, N^2-[(3′-ethoxybiphenyl-4-yl)carbonyl]-N-[2-(4-fluorophenyl)-1,1-dimethylethyl]-L-α-glutamine]	< 30	1190	–
CCc1ccc(-c2ccc(C(=O)N[C@@H](CCC(=O)O)C(=O)NCc3cc(OC)c(OC)c(OC)c3)cc2)cc1 [Example 17E, N^2-[(4′-ethylbiphenyl-4-yl)carbonyl]-N-(3,4,5-trimethoxybenzyl)-L-α-glutamine]	251	1040	–
COc1cccc(-c2ccc(C(=O)N[C@@H](CCC(=O)O)C(=O)NC(C)(C)Cc3ccc(F)cc3)cc2)c1 [Example 17EE, N-[2-(4-fluorophenyl)-1,1-dimethylethyl]-N^2-[(3′-methoxybiphenyl-4-yl)carbonyl]-L-α-glutamine]	< 30	194	–
COc1ccc(-c2ccc(C(=O)N[C@@H](CCC(=O)O)C(=O)NCc3cc(OC)c(OC)c(OC)c3)cc2)cc1OC [Example 17F, N^2-[(3′,4′-dimethoxybiphenyl-4-yl)carbonyl]-N-(3,4,5-trimethoxybenzyl)-L-α-glutamine]	1700	~8300	–
CC(C)c1cccc(-c2ccc(C(=O)N[C@@H](CCC(=O)O)C(=O)NC(C)(C)Cc3ccc(F)cc3)cc2)c1 [Example 17FF, N-[2-(4-fluorophenyl)-1,1-dimethylethyl]-N^2-[(3′-isopropylbiphenyl-4-yl)carbonyl]-L-α-glutamine]	690	13900	–
